Assay results reported in patent publication US10435375B2, “CXCR4 chemokine receptor modulators” (NORTHWESTERN UNIVERSITY, priority 2015, dated 2019).

Columns and labels:
Format in all cases: cell-based
[1] = tested on: cells from AML patient #2; experiment: Cell viability assay measuring colony forming units, cells from AML patient #2, with Ara-C; settings: AML patient #2 cells; combination with Ara-C
Experimental: FIG. 22. Cell viability assay measuring colony forming units of from AML patient #2. Cells were treated with cytotoxic agent Ara-C, the indicated CXCR4 agent, or a combination.

KT1 cells = experiment: Cell viability assay measuring colony forming units of KT1 cells, with imatinib; settings: combination with imatinib
Experimental: FIG. 21. Cell viability assay measuring colony forming units of KT1 cells. Cells were treated with kinase inhibitor imatinib, the indicated CXCR4 agent, or a combination, at the indicated concentrations.

CXCR4 = CXCR4 (Homo sapiens, UniProt P61073); experiment: Calcium imaging ((Ca)i mobilization) assay, fura-2, C8161 melanoma cells; parameters: human melanoma cell line C8161 was initially used, which expresses numerous human CXCR4 receptors; endogenous in cells; host or cells: C8161 human melanoma cells
Text: The initial assay for examining the activity of different molecules was based on the fact that activation of CXCR4 receptors produces an increase in the intracellular free Ca^2+ concentration (Ca)i. This signal can easily be observed using a fluorescent Ca^2+ sensing dye such as fura-2. The quantitative nature of this assay makes it ideal for screening purposes. Moreover, the assay can also distinguish potential antagonists from potential agonists. The aggressive human melanoma cell line C8161 was initially used, which expresses numerous human CXCR4 receptors and produces strong (Ca)I signals when stimulated with SDF-1 (FIG. 3). In the assay, cells were usually stimulated twice with SDF-1. […] To test a drug, the compound in question was usually added prior to the second stimulation with SDF-1. At this point it was possible to observe whether the compound itself acted as an agonist by giving its own response or if it reduced the magnitude of the second response to SDF-1. […] Each of the four antagonists were then assayed at multiple concentrations to obtain a dose-response relationship and an estimated IC50. Antagonists NUCC-388, 397, 392, and 51420 had IC50 values of 0.3 μM, 3 μM, 1 μM, and 1 μM respectively.

Chain of CXCR4 (P61073 whole entry): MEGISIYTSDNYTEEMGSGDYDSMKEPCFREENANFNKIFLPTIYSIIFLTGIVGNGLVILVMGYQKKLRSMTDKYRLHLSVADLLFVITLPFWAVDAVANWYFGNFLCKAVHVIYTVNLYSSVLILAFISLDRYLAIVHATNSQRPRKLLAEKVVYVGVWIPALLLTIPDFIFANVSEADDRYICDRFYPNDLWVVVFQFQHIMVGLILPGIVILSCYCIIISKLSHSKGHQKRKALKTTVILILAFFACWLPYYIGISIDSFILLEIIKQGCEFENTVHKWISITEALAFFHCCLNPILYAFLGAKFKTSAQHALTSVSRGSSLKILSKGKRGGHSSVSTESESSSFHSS

compound's (Ca)i response in presence of CXCR4 antagonist AMD3100 (CXCR4; C8161 cells, AMD3100 1 μM where stated): inhibited by AMD3100
own (Ca)i response (agonist effect) (CXCR4; C8161 cells, compounds 10 μM where stated, SDF-1 100 nM): robust agonist activity
Ca^2+ Assay (CXCR4; Table 1, calcium imaging behavior): Agonist
Pharmacology (CXCR4; Table 2, agonist or antagonist): Agonist
SMILES: CCCn1nc(C(=O)N(C)C)c2c1CCC(NCc1ccc(F)cc1)C2 (stereo not drawn) [NUCC-0054121, 5-((4-Fluorobenzyl)amino)—N,N-dimethyl-1-propyl-4,5,6,7-tetrahydro-1H-indazole-3-carboxamide]
effect on cell killing by Ara-C (colony forming units) [1]: enhanced the cell killing ability of Ara-C
effect on cell killing by imatinib (colony forming units) (KT1 cells): enhanced the cell killing ability of imatinib
